Results published in paper PMC10938758, “A phenotypic screen of the Global Health Priority Box identifies an insecticide with anthelmintic activity” (Parasites & Vectors, 2024).

Columns and labels:
[1] = system: exsheathed third-stage larvae (xL3s) of Haemonchus contortus; assay: Primary screen, H. contortus larval development and phenotype (microscopy); details: 20 µM, 168 h
Description: An established high-throughput phenotypic screening assay was used to test the anthelmintic activity of compounds on H. contortus xL3s. Compounds were assessed for motility inhibition at a concentration of 20 µM in LB*. […] A solution of LB* + 1% (v/v) DMSO was used as a negative control. Test compounds were distributed amongst one flat-bottom, 384-well microplate (cat no. 3860; Corning, Corning, NY, USA). Eighty xL3s of H. contortus in 20 µl of LB* were added to each well to give a final volume of 40 µl. The plate was then placed in a CO2 incubator (10% [v/v] CO2, 38 °C, > 90% humidity). At 90 h, worm activity was captured using a WMicroTracker ONE unit (Phylumtech, Sunchales, Santa Fe, Argentina). Over a period of 15 min, disturbance of an infrared beam in individual wells was recorded as a worm ‘activity count’. Activity counts were then normalised to the positive and negative controls using the GraphPad Prism program (v.9.1.0 GraphPad Software, San Diego, CA, USA). The screening plate was then returned to the incubator (10% [v/v] CO2, 38 °C, > 90% humidity) for an additional 72 h. At 168 h, worms were fixed with 40 µl of Lugol solution (Sigma-Aldrich, St. Louis, MO, USA). Compounds were then assessed (microscopically) for inhibition of larval development and/or induction of a non-wild-type phenotype in H. contortus worms. […] The performance of the assay was monitored using the Z′-factor [58] calculated using data for the negative (DMSO) and positive (M-666) control compounds on individual plates.

H. contortus larvae = assay: H. contortus dose-response assay, larval development; parameters: species or system Haemonchus contortus; details: Haemonchus contortus, 168 h, read-out: IC50, inhibition of H. contortus larval development
Description: The dose–response assay for H. contortus followed a well-established protocol; it was employed to evaluate the potency of hit compounds against this nematode. Test compounds were assessed individually for an effect on the motility of xL3s (10-point, twofold serial dilution in LB*, 40–0.16 μM). One compound, monepantel (prepared in the same manner as the test compounds), was used as a positive control. A solution of LB* was used as a negative control. The test and positive-control compounds were arrayed in triplicate across individual flat-bottom 96-well microplates, with six wells on each plate containing the negative control. Three hundred xL3s of H. contortus in 50 μl of LB* were added to each well to give a final volume of 100 μl. Plates were then placed in a CO2 incubator (10% [v/v] CO2, 38 °C, > 90% humidity). After 168 h of incubation, worm activity was captured using a WMicroTracker ONE unit. Over a period of 15 min, disturbance of an infrared beam in individual wells was recorded as a worm activity count. Raw activity counts for each well were normalised to the negative controls. The compound concentrations were log10-transformed and fitted using a variable-slope four-parameter equation, using the ordinary least squares fit model, employing GraphPad Prism (v.9.1.0). Larval development was established at 168 h of incubation with compound, as described previously. The development inhibition and phenotypes of larvae were examined microscopically. A one-way analysis of variance (ANOVA) with a Tukey multiple comparison test or an unpaired t-test was used to establish statistically significant differences in larval motility or development.

[2] = system: acetylcholine esterase (AChE); details: in vitro and in vivo; direct or indirect effect not confirmed; cited from earlier work
C. elegans young adults = assay: C. elegans dose-response assay, motility; parameters: species or system Caenorhabditis elegans
Description: The dose–response assay for C. elegans followed a well-established protocol and was employed to evaluate the potency of hit compounds against this nematode. Test and positive-control compounds as well as negative controls were prepared in 96-well microplates (cf.). One hundred C. elegans in 50 μl of LB* were added to each well to give a final volume of 100 μl. Plates were then placed in an incubator at 20 °C for 40 h. At 40 h, worm activity was captured using a WMicroTracker ONE unit. Raw activity counts for each well were normalised to the negative controls. The compound concentrations were log10-transformed and fitted using a variable-slope four-parameter equation, using the ordinary least squares fit model, employing GraphPad Prism (v.9.1.0). A one-way ANOVA with a Tukey multiple comparison test or an unpaired t-test was used to establish statistically significant differences in larval motility.

[3] = system: HepG2 human hepatoma cells; assay: Mitotoxicity on HepG2 cells (galactose medium, crystal violet); format: cell-based; details: 48 h, D-galactose medium, serum-starved
Description: The cytotoxic and mitotoxic activity of MMV1794206 on HepG2 human hepatoma cells was evaluated using an established protocol. […] Monepantel and moxidectin (prepared in the same manner as the test compound) were included as reference compounds. Two compounds, doxorubicin (cytotoxic; Sigma-Aldrich, USA) and M-666 (mitotoxic; [57]), were used as positive controls at a single concentration of 10 µM. A solution of DMEM* + 0.25% (v/v) DMSO was used as a negative control. HepG2 cells were seeded into wells of a 96-well plate in 80 µl of DMEM* (at 1 × 10^5 cells per well) and allowed to adhere for 16 h at 37 °C and 5% (v/v) CO2 at > 90% humidity prior to incubation with individual compounds, at a final volume of 100 µl. For the assessment of mitochondrial toxicity, cells were starved of serum (DMEM* without FBS) for 4 h prior to the incubation with compounds [60, 61]. Following 48 h of incubation with compounds, cell viability was determined by crystal violet staining. The absorbance (595 nm) of treated cells was normalised using the negative controls (viability: 100%) to calculate the cell viability. All compounds and controls were tested in triplicate. […]

In the case of `CC(F)c1ncnc(NCCc2ccc(OC(F)(F)F)cc2)c1Cl` (centres unmarked) [MMV1794206, flufenerim], the Abnormal phenotype ([1]; H. contortus larvae) is reported as “Cur”, the “Induction of an abnormal phenotype (in words)” value ([1]; H. contortus larvae) is reported as “induced an abnormal phenotype” and the inhibition at 20 µM ([1]; Haemonchus contortus, H. contortus, read-out: Larval development inhibition, %) is reported as 100%. The IC50 (H. contortus larvae) was 1200 nM, the “AChE activity in whiteflies following treatment” value [2] was “decrease in acetylcholine esterase (AChE) activity” and the “Maximum motility inhibition (MMI), C. elegans” value (C. elegans young adults; 40 h of incubation) was 100%. For the same molecule, the IC50 (C. elegans young adults; Caenorhabditis elegans, 40 h, read-out: IC50, C. elegans young adult motility, 40 h of incubation) was 220 nM and the “half-maximal mitotoxic concentration (MC50)” value [3] was under 0.7 µM.
